Test results reported in patent publication US20250073202A1, “METHODS TO TREAT RENAL DISORDERS USING CALCIUM CHANNEL INHIBITORS” (The Trustees of Indiana University, priority 2018, published 2025).
“Also recorded” adds a separate entry of the source.

Experiments:
[1] = system: renal ischemia reperfusion injury; assay: Bilateral renal ischemia/reperfusion (I/R) injury in rats, 24 hours after reperfusion (Study II); format: in vivo, rat
Protocol: All studies used male Sprague-Dawley rats (250-300 g) that were purchased from Envigo (Indianapolis, IN). Rats were anesthetized with a cocktail of ketamine (100 mg·kg^−1, KetoVed, Vedco Inc, St. Joseph, MO) and xylazine (50 mg·kg^−1, AnaSed, Lloyd Inc, Shenandoah IA). Rats were placed on a heated surgical table to maintain body temperature. A midline incision and either unilateral (left) or bilateral renal ischemia (as indicated in Results) was induced by applying micro-aneurism clamps on the renal pedicles for a period of 40 min. Re-establishment of perfusion was verified by visual examination following removal of the clamps. Rats were provided post-operative analgesia using buprenorphine-SR (1 mg·kg^−1).
Rats were allowed to recover for various periods of time as described in the Results. In Study I, lymphocytes were studied in vitro after recovery for either 2 or 7 days following I/R or sham surgery for evaluation of function in vitro or for FACS analysis. In Study II, the effect of SOCE on kidney injury was studied with the inhibitor YM58483/BPT2 (N-[4-[3,5-Bis(trifluoromethyl)-1H-pyrazol-1-yl]phenyl]-4-methyl-1,2,3-thiadiazole-5-carboxamide; Tocris/Bio-Techne Minneapolis, MN). Rats were pretreated p.o. 2-3 hours prior to surgery with YM58483.BPT2 (1 mg·kg^−1) in sugar-free chocolate pudding following dilution in 100% EtOH, at, a dose previously shown to affect T cell activation in rats. In some experiments, rats were also treated with the IL17Rc (150 ng/day i.p; R&D Systems). In addition, one experiment utilized a model of rhabdomyolysis, induced by injection of 50% glycerol (10 ml/kg) into the hindlimb muscle of rats following 16 hours of water restriction.
To measure creatinine, tail blood was collected in heparin containing tubes and centrifuged to collect plasma. Plasma creatinine was measured using a Pointe Scientific Analyzer and Creatinine Assay reagents using methods outlined by the manufacturer (Pointe Scientific, Canton MI). Urine was collected for 24 hours by placing rats in metabolic cages and urine volume was determined gravimetrically. Urine creatinine was measured using a colorimetric assay adopted for microplate readers. Creatinine clearance was measured using UCr*V/PCr. […]
Freshly harvested kidneys were minced and digested in liberase (2 μg/ml. Roche, Indianapolis IN) for 15 min at 37° C. using Gentle MACs (Miltenyli, San Diego, CA). The digested tissue was filtered through a 100-μm mesh and washed with RPMI containing 10% fetal bovine serum (Invitrogen). Mononuclear cells were isolated using Percol (Sigma) density gradient centrifugation.
(§1) To evaluate protein expression of IL17 or Orai1, Orai2 or Orai3, cells were restimulated with PMA and ionomycin for 6 hours in the presence of monensin (Golgistop, 1 μg·ml, BD Biosciences) permeabilized with saponin ([…]) and stained with relevant antibody. Cells were scanned using flow cytometry (FACSCalibur, BD Biosciences, San Jose, CA) and scans were analyzed using Flowjo software (Tree Star, Ashland, OR).
The effect of SOCE on early ischemic kidney injury was studied with the inhibitor YM58483/BPT2 (N-[4-[3,5-Bis(trifluoromethyl)-1 H-pyrazol-1-yl]phenyl]-4-methyl-1,2,3-thiadiazole-5-carboxamide; Tocris/Bio-Techne Minneapolis, MN). Rats were pretreated 2-3 hours prior to surgery, p.o. in sugar-free chocolate pudding following dilution in 100% EtOH, at 1 mg·kg^−1, a dose previously shown affect T cell activation in rats. To evaluate if SOCE influences Th17 cells in AKI, rats were fed YM58483/BPT2 approximately 2 hours prior to […] and reperfusion. […] YM58483/2BPT2 also attenuated the infiltration of total CD4+ and CD8+ T-cells, B-cells, and dendritic cells following I/R (FIGS. 3C, 3D, 3E, and 3F).

AKI-primed CD4+ cells [2] = assay: In vitro stimulation of AKI-primed kidney CD4+ cells with Ang II and elevated Na+, IL17 response; format: cell-based, rat; details: inhibitor 10 μM; Ang II 10^-7 M and 170 mM Na+; 12-14 hours; cells 7 days post I/R
Protocol: Total RNA was obtained from kidney using Trizol and the Zymogen RNA extraction kit and cDNA was prepared using MMLV enzyme (Invitrogen, Carlsburg, CA). Quantitative real time PCR (qPCR) using gene specific primers was performed using ABI 7500 (Applied Biosystems, Foster City, CA). mRNA values were calculated using 2^−ΔΔCt. Specific primers sequences for IL-6 (catalog #Rn01410330_m1), Kim-1 (#Rn00597703_m1) and IL17 (Rn01757168_m1) were purchased from ThermoFisher (Waltham, MA).
as §1
CD4+T cells were isolated using the MACS Pan-T cell microbead separation kit (Miltenyl, Glabach, Germany). T cells were stimulated with plate bound anti-CD3 (precoated with 2 μg/mL) and soluble anti-CD28 (1 μg/mL). Cells (2.5×10^5 in 0.25 ml) were incubated 12-14 hours at 37° C. in RPMI medium supplemented with 10% FBS (Invitrogen) in a 48-well plate. Cells were challenged with Ang II (Sigma, 10^−7M) and raising the extracellular Na+ from 140 mM to 170 mM, using a 1 M NaCl solution. Calcium channel inhibitors 2ABP (10 μM, Sigma) AnCoA4 (10 μM, Millipore, Burlington, MA) and YM58483/BTP2 (10 μM) were included to evaluate effects on IL-17.

AKI-primed CD4+ cells [3] = assay: Fura-2 imaging of intracellular Ca2+ responses in AKI-primed CD4+ cells; format: cell-based, rat; details: superfusate with Ang II and elevated Na+; to levels similar to sham
Protocol: To assess Ca^2+ responses, fura2 imaging was performed. Briefly, isolated CD4+ T cells were loaded with fura-2AM (2.5 μM, Sigma, St. Louis, MO) for 45 min, washed, placed on poly-lysine (Sigma) coated coverslips and placed in a superfusion chamber with physiological salt solution (PSS) containing 2 mM Ca^2+. The chamber was mounted on an inverted epifluorescence microscope and signal measured with alternating excitation at 340 and 380 nm and emission at 510 nm using the InCa^2+-imaging system (Intracellular Imaging Systems, Cincinnati, OH). Data were acquired at 1.5 Hz and representative tracings were smoothed to the 10 nearest neighbor points using GraphPad Prism. For analysis, an increase in signal intensity of >1 standard deviation from baseline was considered a positive response. Frequency of responding cells was determined from an average 53±19 cells for each animal.

[4] = 24 hours following I/R, listed as YM58483/2BPT2
[5] = 24 hours following I/R, listed as YM58483/BPT
[6] = 24 hours following ischemia reperfusion, mean ± S.E.

## Cc1nnsc1C(=O)Nc1ccc(-n2nc(C(F)(F)F)cc2C(F)(F)F)cc1 [YM58483/BPT2, N-[4-[3,5-Bis(trifluoromethyl)-1H-pyrazol-1-yl]phenyl]-4-methyl-1,2,3-thiadiazole-5-carboxamide]
[1]; 24 hours after reperfusion, 1 mg/kg p.o. pretreatment
  mRNA expression of kidney injury marker-1 (Kim-1): significantly attenuated
[1]; 24 hours after reperfusion, YM58483 1 mg/kg p.o. 2-3 hours prior to surgery
  level of renal injury as plasma creatinine (vs vehicle): significantly attenuated; also recorded: significantly reduced
[1]; 24 hours following I/R
  CD8+ cells in kidney (vs vehicle): did not significantly effect
  Th1 cells post-ischemia: did not significantly influence
  Th2 cells post-ischemia: did not significantly influence
  infiltration of B-cells in kidney: attenuated
  infiltration of dendritic cells in kidney: attenuated
  kidney CD4+/IL17+ cells (vs vehicle): reduction was observed
[1]; 24 hours following I/R, 1 mg/kg p.o. pretreatment
  reduction of total IL17 expressing cells relative to vehicle: ~78%
[1]; 24 hours following I/R, listed as YM58483/2-BPT
  infiltration of total CD4+ T-cells in kidney (vs vehicle): attenuated
[1]; [4]
  CD8+ cells in kidney (vs vehicle): attenuated
  infiltration of total CD4+ T-cells in kidney (vs vehicle): attenuated
[1]; [5]
  infiltration of total CD4+ T-cells in kidney (vs vehicle): significantly reduced
  kidney CD4+/IL17+ cells (vs vehicle): significantly reduced
[1]; [6]
  CD4+ renal lymphocyte content: 26156 ± 4365 cells/gram
  CD4+/IL-17+ cells: 2020 ± 731 cells/gram
  CD8+ cells renal lymphocyte content: 8410 ± 1386 cells/gram
  CD8+IL-17+ cells: 127 ± 23 cells/gram
  Serum Creatinine: 3.7 ± 0.6 mg/dL
  Total IL-17+ cells: 9334 ± 4293 cells/gram
AKI-primed CD4+ cells [2]
  increase in IL17+ cells (IL17 protein, FACS): completely blocked
  increase of IL17 mRNA: completely blocked
AKI-primed CD4+ cells [3]
  percentage of Ca2+-responding cells: significantly attenuated
